Results: patent US10858359B2, “Heterocyclic ring derivatives useful as SHP2 inhibitors” (priority 2016, dated 2020)
Structures can show the parent of a compound that is named as a salt.

Columns and labels:
SHP2 [1] = target: T1, SHP2 (Homo sapiens (Human), UniProt Q06124); test: Phosphatase assay (single dose inhibition), DiFMUP substrate; format: biochemical; conditions: compound at 0.1 μM (100 nM); SHP2 0.5 nM activated with dPEG8 peptide; DiFMUP 12 μM; relative to DMSO control
Experimental: DMSO [0.5% (v/v)] or compounds (100 nM) were added to the mixture and incubated for 30 min at room temperature. […] The experiment is carried out in triplicate. The value for the control sample (DMSO) was set to 100%, and the values for the compound-treated samples were expressed as activity relative to the control sample.

KYSE-520 cells = test: Cell proliferation assay (MTS/PMS); format: cell-based; conditions: Homo sapiens, 192 h, 1500 cells/well, RPMI-1640 3% FBS, read at day 8
Experimental: For drug treatment, compounds of the invention at various concentrations were added 24 hours after cell plating. At day 8, 50 μL MTS/PMS reagents (Promega/Sigma) were added, and the absorbance value was determined according to the supplier's instruction (Promega).

SHP2 [2] = target: T1, SHP2; test: Phosphatase assay (IC50), DiFMUP substrate; format: biochemical; conditions: SHP2 0.5 nM activated with dPEG8 peptide; DiFMUP 12 μM; compounds 0.3 nM to 1 μM
Experimental: DMSO [0.5% (v/v)] or compounds (concentrations ranging from 0.3 nM to 1 μM) were added to the mixture and incubated for 30 min at room temperature.

inhibition at 0.1 µM (SHP2 [1]) [%] | IC50 (SHP2 [2]) [µM] | SMILES | IC50 (KYSE-520 cells) [µM]
58 |  | Nc1nc(N2CCC3(CC2)COC[C@H]3N)cnc1Sc1cccc2[nH]ccc12 [Example 42, (S)-8-(5-((1H-indol-4-yl)thio)-6-aminopyrazin-2-yl)-2-oxa-8-azaspiro[4.5]decan-4-amine] | 
 |  | CN1C(=O)C(F)(F)c2c(Sc3ncc(N4CCC5(CC4)COC[C@H]5N[S@+]([O-])C(C)(C)C)nc3N)cccc21 [Example 11, (R)-N-((S)-8-(6-amino-5-((3,3-difluoro-1-methyl-2-oxoindolin-4-yl)thio)pyrazin-2-yl)-2-oxa-8-azaspiro[4.5]decan-4-yl)-2-methylpropane-2-sulfinamide] | 12
31 |  | CC(=O)N1CCc2c(Sc3ncc(N4CCC5(CC4)COC[C@H]5N)nc3N)cccc21 [Example 72, (S)-1-(4-((3-amino-5-(4-amino-2-oxa-8-azaspiro[4.5]decan-8-yl)pyrazin-2-yl)thio)indolin-1-yl)ethanone] | 
43 |  | CC(=O)n1ccc2c(Sc3ncc(N4CCC5(CC4)COC[C@H]5N)nc3N)cccc21 [Example 43, (S)-1-(4-((3-amino-5-(4-amino-2-oxa-8-azaspiro[4.5]decan-8-yl)pyrazin-2-yl)thio)-1H-indol-1-yl)ethanone] | 
35 |  | Nc1nc(N2CCC3(CC2)C(=O)N2CCCC2C3N)cnc1Sc1ccnc(N)c1Cl (centres unmarked) [Example 75, 1′-amino-1-(6-amino-5-((2-amino-3-chloropyridin-4-yl)thio)pyrazin-2-yl)tetrahydrospiro[piperidine-4,2′-pyrrolizin]-3′(1′H)-one] | 
 |  | CC(=O)N1CC(F)(F)c2c(Sc3ncc(N4CCC(C)(CNC(=O)OC(C)(C)C)CC4)nc3N)cccc21 [Example 13, tert-butyl ((1-(5-((1-acetyl-3,3-difluoroindolin-4-yl)thio)-6-aminopyrazin-2-yl)-4-methylpiperidin-4-yl)methyl)carbamate] | 20.6
60 |  | CN(C)C(=O)C(=O)c1ccc(C(=O)Nc2cccc(Sc3ncc(N4CCC(C)(N)CC4)nc3N)c2Cl)cc1 [Example 3, N-(3-((3-amino-5-(4-amino-4-methylpiperidin-1-yl)pyrazin-2-yl)thio)-2-chlorophenyl)-4-(2-(dimethylamino)-2-oxoacetyl)benzamide] | 
71 | 0.0406 | Nc1nc(N2CCC3(CC2)COC[C@H]3N)cnc1Sc1cccc2[nH]cc(F)c12 [Example 40, (S)-8-(6-amino-5-((3-fluoro-1H-indol-4-yl)thio)pyrazin-2-yl)-2-oxa-8-azaspiro[4.5]decan-4-amine] | 
53 |  | Cc1ccc(C(=O)C(=O)Nc2cccc(Sc3ncc(N4CCC(C)(N)CC4)nc3N)c2Cl)cc1 [Example 31, N-(3-((3-amino-5-(4-amino-4-methylpiperidin-1-yl)pyrazin-2-yl)thio)-2-chlorophenyl)-2-oxo-2-(p-tolyl)acetamide] | 
57 |  | CN(C)C(=O)C(=O)Nc1cccc(Sc2ncc(N3CCC(C)(CN)CC3)nc2N)c1Cl [Example 20, N^1-(3-((3-amino-5-(4-(aminomethyl)-4-methylpiperidin-1-yl)pyrazin-2-yl)thio)-2-chlorophenyl)-N^2,N^2-dimethyloxalamide] | 
81 | 0.03 | Nc1nc(N2CCC3(CC2)COC[C@H]3N)cnc1Sc1ccnc2c1C(F)(F)C(=O)N2 [Example 10, (S)-4-((3-amino-5-(4-amino-2-oxa-8-azaspiro[4.5]decan-8-yl)pyrazin-2-yl)thio)-3,3-difluoro-1H-pyrrolo[2,3-b]pyridin-2(3H)-one] | 
47 |  | CN(C)C(=O)C(=O)Nc1cccc(Sc2ncc(N3CCC(C)(N)CC3)nc2N)c1Cl [Example 29, N^1-(3-((3-amino-5-(4-amino-4-methylpiperidin-1-yl)pyrazin-2-yl)thio)-2-chlorophenyl)-N^2,N^2-dimethyloxalamide] | 
76 | 0.0214 | Nc1nc(N2CCC3(CC2)COC[C@H]3N)cnc1Sc1cccc2c1C(F)(F)C(=O)N2 [Example 8, (S)-4-((3-amino-5-(4-amino-2-oxa-8-azaspiro[4.5]decan-8-yl)pyrazin-2-yl)thio)-3,3-difluoroindolin-2-one] | 26.4
37 |  | CN(C)C(=O)C(=O)c1ccc(C(=O)Nc2nccc(Sc3ncc(N4CCC(C)(N)CC4)nc3N)c2Cl)cc1 [Example 34, N-(4-((3-amino-5-(4-amino-4-methylpiperidin-1-yl)pyrazin-2-yl)thio)-3-chloropyridin-2-yl)-4-(2-(dimethylamino)-2-oxoacetyl)benzamide] | 
75 | 0.0083 | Nc1nc(N2CCC3(CC2)CC2CC2C3N)cnc1Sc1ccnc(N)c1Cl (centres unmarked) [Example 74, 1′-(6-amino-5-((2-amino-3-chloropyridin-4-yl)thio)pyrazin-2-yl)spiro[bicyclo[3.1.0]hexane-3,4′-piperidin]-2-amine] | 3.38
49 |  | C=CC(=O)Nc1cccc(Sc2ncc(N3CCC(C)(NC(=O)OC(C)(C)C)CC3)nc2N)c1Cl [Example 32, tert-butyl (1-(5-((3-acrylamido-2-chlorophenyl)thio)-6-aminopyrazin-2-yl)-4-methylpiperidin-4-yl)carbamate] | 
30 |  | Nc1nc(N2CCC3(CC2)COC[C@H]3N)cnc1Sc1ccnc2[nH]ccc12 [Example 38, (S)-8-(5-((1H-pyrrolo[2,3-b]pyridin-4-yl)thio)-6-aminopyrazin-2-yl)-2-oxa-8-azaspiro[4.5]decan-4-amine] | 
30 |  | CN(C)C(=O)C(=O)c1ccc(C(=O)Nc2nccc(Sc3ncc(N4CCC(C)(CN)CC4)nc3N)c2Cl)cc1 [Example 35, N-(4-((3-amino-5-(4-(aminomethyl)-4-methylpiperidin-1-yl)pyrazin-2-yl)thio)-3-chloropyridin-2-yl)-4-(2-(dimethylamino)-2-oxoacetyl)benzamide] | 
 |  | CN(C)C(=O)C(=O)Nc1cccc(Sc2ncc(N3CCC4(CC3)COC[C@H]4N)nc2N)c1Cl [Example 1, (S)-N1-(3-((3-amino-5-(4-amino-2-oxa-8-azaspiro[4.5]decan-8-yl)pyrazin-2-yl)thio)-2-chlorophenyl)-N2,N2-dimethyloxalamide hydrochloride] | 15.9
61 |  | CN1C(=O)C(F)(C(F)(F)F)c2c(Sc3ncc(N4CCC5(CC4)COC[C@H]5N)nc3N)cccc21 (stereo partly drawn) [Example 58, 4-((3-amino-5-((S)-4-amino-2-oxa-8-azaspiro[4.5]decan-8-yl)pyrazin-2-yl)thio)-3-fluoro-1-methyl-3-(trifluoromethyl)indolin-2-one] | 
